Assay results: US20220347158A1, “Methods of Treating Conditions Related to the S1P1 Receptor” (Arena Pharmaceuticals, Inc., priority 2019, published 2022)
Read-outs that look alike come from different tables or passages of the source.

Experiments:
[1] = system: peripheral lymphocyte counts; experiment: Phase 1, multiple ascending dose clinical trial in healthy subjects; format: in vivo, human
Excerpt: […] […] After treatment with Compound 1, lymphocyte reductions of 46% and 65% for Day 8 and Day 15, respectively, were observed.

[2] = system: peripheral blood lymphocytes; experiment: Phase 1, single ascending dose clinical trial in healthy subjects; format: in vivo, human
UC patients [3] = experiment: Phase 2 dose-ranging study in UC patients; format: in vivo, human
Excerpt: Further, while UC and CD have overlapping features, there are differences in pathophysiology, disease location, and extent of disease that may dictate different doses for the treatment of UC and CD. Described herein is the elucidation of safe and efficacious dosing of Compound 1 for the treatment of CD.
(§1) Compound 1, or a pharmaceutically acceptable salt, solvate, or hydrate thereof, is an orally administered, selective, synthetic sphingosine 1-phosphate (S1P) receptor 1, 4, 5 modulator. […] Its safety and tolerability have been evaluated in Phase 1 studies with healthy adult subjects at single doses up to 5 mg and repeated doses up to 4 mg once daily (“QD” or “qd”).

UC patients [4] = experiment: Open-label extension study after the Phase 2 UC study; format: in vivo, human; settings: up to 46 weeks
Experimental: as §1

[5] = system: peripheral lymphocyte counts; experiment: Phase 1 studies taken together (safety, tolerability, lymphocyte counts); format: in vivo, human
Experimental: Compound 1, or a pharmaceutically acceptable salt, solvate, or hydrate thereof, is an orally administered, selective, synthetic sphingosine 1-phosphate (S1P) receptor 1, 4, 5 modulator. […] Its safety and tolerability have been evaluated in Phase 1 studies with healthy adult subjects at single doses up to 5 mg and repeated doses up to 4 mg once daily (“QD” or “qd”). […] In another Phase 1 study, 30 adult subjects received 2 mg of Compound 1 qd (Days 1 to 7), then 3 mg of Compound 1 qd (Days 8 to 12), and finally 4 mg of Compound 1 qd (Days 13 to 14). […] After treatment with Compound 1, lymphocyte reductions of 46% and 65% for Day 8 and Day 15, respectively, were observed.

lymphocyte = format: in vivo, human
Experimental: In another Phase 1 study, 30 adult subjects received 2 mg of Compound 1 qd (Days 1 to 7), then 3 mg of Compound 1 qd (Days 8 to 12), and finally 4 mg of Compound 1 qd (Days 13 to 14). […] After treatment with Compound 1, lymphocyte reductions of 46% and 65% for Day 8 and Day 15, respectively, were observed.

subjects with CD = settings: Phase 2; cited from earlier work

| SMILES | safety and tolerability ([1]; up to 21 days of dosing with 2 mg or 3 mg) | peripheral lymphocyte counts ([1]; up to 21 days of dosing, 2 mg and 3 mg) | decline in the absolute number of peripheral blood lymphocytes ([2]; single 3 mg and 5 mg doses) | declines in peripheral blood lymphocytes ([2]; single doses up to 1 mg) | endoscopic and symptomatic improvements versus placebo (UC patients [3]; UC patients, 2 mg QD for 12 weeks) | efficacy over placebo (UC patients [3]; subjects with UC, 2 mg) | beneficial effects in open-label extension (UC patients [4]) | reductions in peripheral lymphocyte counts ([5]; Phase 1 studies together, 2 mg and 3 mg) | tolerability and safety ([5]; Phase 1 studies together, doses up to 4 mg) | safety and tolerability ([5]; adult subjects treated at various doses, Phase 1 single doses up to 5 mg, repeated doses up to 4 mg once daily) | lymphocyte reductions (lymphocyte; Day 8 (after 2 mg qd Days 1 to 7)) [%] | lymphocyte reductions (lymphocyte; Day 15 (after 2 mg Days 1 to 7, 3 mg Days 8 to 12, 4 mg Days 13 to 14)) [%] | efficacy over placebo (subjects with CD) |
| --- | --- | --- | --- | --- | --- | --- | --- | --- | --- | --- | --- | --- | --- |
| O=C(O)C[C@H]1CCc2c1[nH]c1ccc(OCc3ccc(C4CCCC4)c(C(F)(F)F)c3)cc21 [Compound 1, (R)-2-(7-(4-cyclopentyl-3-(trifluoromethyl)benzyloxy) -1,2,3,4-tetrahydrocyclopenta[b]indol-3-yl)acetic acid] | safe and well-tolerated | reduced peripheral lymphocyte counts | clear dose-responsive decline | only modest declines | clinically meaningful and statistically significant endoscopic and symptomatic improvements | improved efficacy | Sustained beneficial effects | significant reductions | well-tolerated with no significant safety findings | safe and well-tolerated | 46 | 65 | – |
| CCCCCCCOc1ccc(CCC(N)(CO)CO)cc1C(F)(F)F [amiselimod] | – | – | – | – | – | – | – | – | – | – | – | – | did not result in improved efficacy over placebo |
